Test: In vivo biodistribution of ^225Ac complexes of macropa and DOTA and of ^225Ac(NO3)3 in mice
Design: species or system C57BL/6 mice
Experimental: In Vivo Biodistribution of ^225Ac Complexes of Macropa and DOTA. All experiments were approved by the Institutional Animal Care Committee (IACC) of the University of British Columbia and were performed in accordance with the Canadian Council on Animal Care Guidelines. A total of 9 female C57BL/6 mice (6-8 weeks old, 20-25 g) were used for the biodistribution study of each radiometal complex, n=3 for each time point.
Macropa (100 μL of a 1 mg/mL solution in NH4OAc) was diluted with 387 μL of NH4OAc (1 M, pH 7), and an aliquot (203 μL) of ^225Ac(NO3)3 (˜157 kBq) was then added; the pH of this solution was adjusted to 6.5-7 by the addition of 1 M NaOH (210 μL, trace metal grade). After 5 min at ambient temperature, the reaction solution was analyzed by TLC (0.4 M pH 4 sodium citrate as the eluent), which confirmed >95% radiochemical yield. The reaction was allowed to proceed overnight, and the radiochemical yield was again confirmed to be >95% the following morning. At this time, mice were anesthetized by 2% isoflurane, and approximately 100 μL (10-15 kBq) of the [^225Ac(macropa)]^+ complex were injected into the tail vein of each mouse. After injection, mice were allowed to recover and roam freely in their cages, and were euthanized by CO2 inhalation at 15 min, 1 h, or 5 h (n=3 at each time point) post-injection. Blood was collected by cardiac puncture and placed into an appropriate test tube for scintillation counting. Tissues collected included heart, liver, kidneys, lungs, small intestine, large intestine, brain, bladder, spleen, stomach, pancreas, bone, thyroid, tail, urine, and feces. Tissues were weighed and then counted with a calibrated gamma counter (Packard, Cobra II model 5002) using three energy windows: 60-120 keV (window A), 180-260 keV (window B), and 400-480 keV (window C). Counting was performed both immediately after sacrifice and after 7 days; counts were decay corrected from the time of injection and then converted to the percentage of injected dose (% ID) per gram of tissue (% ID/g). […]
The biodistribution studies of [^225Ac(DOTA)]^− and ^225Ac(NO3)3 were carried out as described above for [^225Ac(macropa)]^+, with the following modifications. [^225Ac(DOTA)^− was prepared by adding ^225Ac(NO3)3 (338 μL, 1.1 MBq) to a solution of DOTA (100 μg, 20 mg/mL in H2O) in NH4OAc (467 μL, 0.15 M, pH 7). The pH of the solution was adjusted to 7 using NH4OAc (150 μL, 1 M, pH 7) and the solution was heated at 85° C. for 45 min. RCY>99% was confirmed by TLC as described above. [^225Ac(DOTA)]^− was diluted with saline to a final concentration of 0.05 MBq/100 μL, and 100 μL were injected into each mouse. ^225Ac(NO3)3 (˜58 μL, 0.4 MBq) was diluted and injected in the same manner as [^225Ac(DOTA)]^−. One mouse that was to be euthanized at the 5 h time point in the [^225Ac(DOTA)]^− study died shortly after injection. In the same manner, one mouse that was to be euthanized at the 1 h time point in the ^225Ac(NO3)3 study died.
The in vivo stability [^225Ac(macropa)]^+ was examined by comparing its biodistribution to those of ^225Ac(NO3)3 and [^225Ac(DOTA)]^−. C57BL/6 mice were injected via tail vein with 10-50 kBq of each radiometal complex and were sacrificed after 15 min, 1 h, or 5 h. The amount of ^225Ac retained in each organ was quantified by gamma counting and reported as the percent of injected dose per gram of tissue (% ID/g). The results of these studies are compiled in Tables 1-3. Inadequate stability of an ^225Ac complex leading to the loss of radioisotope in vivo is manifested by the accumulation of ^225Ac in the liver, spleen, and bone of mice.^[11,12,32] […] The biodistribution profile of [^225Ac(macropa)]^+ (FIG. 3B) differs markedly from that of ^225Ac(NO3)3. […] Its biodistribution profile was similar to that of [^225Ac(DOTA)]^− (FIG. 3C), which has been previously shown to retain ^225Ac in vivo.^[7]

[1] = 15 min after i.v. injection, energy window A (60-120 keV)
[2] = 15 min after i.v. injection, energy window C (400-480 keV)
[3] = 1 h after i.v. injection, energy window A (60-120 keV)
[4] = 1 h after i.v. injection, energy window B (180-260 keV)
[5] = 1 h after i.v. injection, energy window C (400-480 keV)
[6] = 5 h after i.v. injection, energy window A (60-120 keV)
[7] = 5 h after i.v. injection, energy window B (180-260 keV)
[8] = 5 h after i.v. injection, energy window C (400-480 keV)

Compound: O=C([O-])c1cccc(CN2CCOCCOCCN(Cc3cccc(C(=O)[O-])n3)CCOCCOCC2)n1.[225Ac+3] [[^225Ac(macropa)]^+]
- Organ distribution: brain [1]: 0.26 % ID/g
- Organ distribution: feces [1]: 0.91 % ID/g
- Organ distribution: large intestines [1]: 2.40 % ID/g
- Organ distribution: brain (15 min after i.v. injection, energy window B (180-260 keV)): 0.23 % ID/g
- Organ distribution: brain [2]: 0.17 % ID/g
- Organ distribution: pancreas [2]: 3.00 % ID/g
- Organ distribution: blood [3]: 0.40 % ID/g
- Organ distribution: bone (femur + joint) [3]: 0.31 % ID/g
- Organ distribution: brain [3]: 0.12 % ID/g
- Organ distribution: feces [3]: 0.28 % ID/g
- Organ distribution: heart [3]: 0.31 % ID/g
- Organ distribution: large intestines [3]: 0.36 % ID/g
- Organ distribution: liver [3]: 0.75 % ID/g
- Organ distribution: lungs [3]: 0.51 % ID/g
- Organ distribution: pancreas [3]: 0.19 % ID/g
- Organ distribution: small intestines [3]: 1.10 % ID/g
- Organ distribution: spleen [3]: 0.51 % ID/g
- Organ distribution: stomach [3]: 0.41 % ID/g
- Organ distribution: blood [4]: 0.39 % ID/g
- Organ distribution: bone (femur + joint) [4]: 0.17 % ID/g
- Organ distribution: brain [4]: 0.12 % ID/g
- Organ distribution: feces [4]: 0.27 % ID/g
- Organ distribution: heart [4]: 0.20 % ID/g
- Organ distribution: large intestines [4]: 0.22 % ID/g
- Organ distribution: liver [4]: 0.70 % ID/g
- Organ distribution: lungs [4]: 0.54 % ID/g
- Organ distribution: pancreas [4]: 0.12 % ID/g
- Organ distribution: small intestines [4]: 0.94 % ID/g
- Organ distribution: spleen [4]: 0.23 % ID/g
- Organ distribution: stomach [4]: 0.33 % ID/g
- Organ distribution: thyroids [4]: 0.10 % ID/g
- Organ distribution: bladder [5]: 9.00 % ID/g
- Organ distribution: blood [5]: 0.54 % ID/g
- Organ distribution: bone (femur + joint) [5]: 0.70 % ID/g
- Organ distribution: brain [5]: 0.23 % ID/g
- Organ distribution: feces [5]: 0.69 % ID/g
- Organ distribution: heart [5]: 0.23 % ID/g
- Organ distribution: large intestines [5]: 0.79 % ID/g
- Organ distribution: lungs [5]: 0.84 % ID/g
- Organ distribution: pancreas [5]: 0.43 % ID/g
- Organ distribution: spleen [5]: 0.48 % ID/g
- Organ distribution: stomach [5]: 0.17 % ID/g
- Organ distribution: blood [6]: 0.01 % ID/g
- Organ distribution: bone (femur + joint) [6]: 0.05 % ID/g
- Organ distribution: brain [6]: 0.02 % ID/g
- Organ distribution: heart [6]: 0.10 % ID/g
- Organ distribution: kidneys [6]: 0.74 % ID/g
- Organ distribution: large intestines [6]: 0.49 % ID/g
- Organ distribution: liver [6]: 0.39 % ID/g
- Organ distribution: lungs [6]: 0.01 % ID/g
- Organ distribution: pancreas [6]: 0.10 % ID/g
- Organ distribution: small intestines [6]: 0.29 % ID/g
- Organ distribution: spleen [6]: 0.11 % ID/g
- Organ distribution: stomach [6]: 0.01 % ID/g
- Organ distribution: tail [6]: 0.14 % ID/g
- Organ distribution: thyroids [6]: 0.10 % ID/g
- Organ distribution: blood [7]: 0.00 % ID/g
- Organ distribution: bone (femur + joint) [7]: 0.02 % ID/g
- Organ distribution: brain [7]: −0.01 % ID/g
- Organ distribution: heart [7]: −0.04 % ID/g
- Organ distribution: kidneys [7]: 0.78 % ID/g
- Organ distribution: large intestines [7]: 0.45 % ID/g
- Organ distribution: liver [7]: 0.36 % ID/g
- Organ distribution: lungs [7]: −0.05 % ID/g
- Organ distribution: pancreas [7]: −0.12 % ID/g
- Organ distribution: small intestines [7]: 0.29 % ID/g
- Organ distribution: spleen [7]: 0.09 % ID/g
- Organ distribution: stomach [7]: 0.04 % ID/g
- Organ distribution: tail [7]: 0.13 % ID/g
- Organ distribution: blood [8]: 0.04 % ID/g
- Organ distribution: bone (femur + joint) [8]: 0.08 % ID/g
- Organ distribution: brain [8]: −0.01 % ID/g
- Organ distribution: heart [8]: 0.28 % ID/g
- Organ distribution: large intestines [8]: 0.68 % ID/g
- Organ distribution: liver [8]: 0.55 % ID/g
- Organ distribution: lungs [8]: 0.15 % ID/g
- Organ distribution: pancreas [8]: 0.13 % ID/g
- Organ distribution: small intestines [8]: 0.42 % ID/g
- Organ distribution: spleen [8]: 0.43 % ID/g
- Organ distribution: stomach [8]: 0.13 % ID/g
- Organ distribution: tail [8]: 0.28 % ID/g
- blood clearance and excretion (in words) (i.v. injection, up to 5 h): rapidly cleared from mice
- organ accumulation (in words) (i.v. injection, up to 5 h): did not accumulate in any organ

From patent publication US12258339B2, “Macrocyclic complexes of alpha-emitting radionuclides and their use in targeted radiotherapy of cancer” (Cornell University, priority 2018, dated 2025)
